Test results from patent publication US10189842B2 (Agency for Science, Technology and Research, priority 2013, dated 2019).

Tested on: HEK293-STF3A cells
Experiment: STF3A assay (luciferase reporter)
Format: cell-based, Human
Conditions: Homo sapiens, 24 h, 1 day of treatment
Excerpt: HEK293-STF cell line was modified from Human embryonic kidney cell line HEK293 transfected with the STF reporter. HEK293-STF3A cell line was further modified from HEK293-STF cell line to express Wnt3A. This cell line was used to identify compounds that regulate either early or late signaling components of the Wnt pathway. These two cell lines were obtained from David Virshup's laboratory, Duke-NUS. L-Wnt3A (ATCC, #CRL-2647) cell line was used for providing Wnt3A conditioned media. The three cell lines were grown in DMEM with 10% FBS incubated in 37° C. with 5% CO2.
2×10^4 HEK293-STF3A cells in 75 μl culture media were seeded in each well of white 96 well plates (Greiner #655098) and incubated overnight at 37° C. 25 μl serially diluted compound was added to the cells to give final concentration of 50 μM to 1.5 nM. After 1 day of treatment, 100 μl of Steady-Glo Luciferase Assay reagent (#E2520, Promega) was added to each well and incubated for 10 minutes at room temperature. Luminescence was measured using Tecan Safire2 plate reader.

SMILES | IC50 [nM]
Cc1cc2n(n1)CCCN2C(=O)CCC(=O)Nc1ccc(-c2nccs2)cn1 [Compound 26, 4-(2-methyl-6,7-dihydropyrazolo[1,5-a]pyrimidin-4(5H)-yl)-4-oxo-N-(5-(thiazol-2-yl)pyridin-2-yl)butanamide] | < 100
Cc1cc2n(n1)CCCN2C(=O)CCC(=O)Nc1ccc(-n2ccnc2)cc1 [Compound 27, N-(4-(1H-imidazol-1-yl)phenyl)-4-(2-methyl-6,7-dihydropyrazolo[1,5-a]pyrimidin-4(5H)-yl)-4-oxobutanamide] | < 1000
Cc1cc2n(n1)CCCN2C(=O)CCC(=O)Nc1ccc(-c2csc(C)n2)cc1 [Compound 28, 4-(2-methyl-6,7-dihydropyrazolo[1,5-a]pyrimidin-4(5H)-yl)-N-(4-(2-methylthiazol-4-yl)phenyl)-4-oxobutanamide] | < 100
Cc1cc2n(n1)CCCN2C(=O)CCC(=O)Nc1ccc(-c2ccnn2C)cc1 [Compound 29, N-(4-(1-methyl-1H-pyrazol-5-yl)phenyl)-4-(2-methyl-6,7-dihydropyrazolo[1,5-a]pyrimidin-4(5H)-yl)-4-oxobutanamide] | < 1000
Cc1cc2n(n1)CCCN2C(=O)CCC(=O)Nc1ccc(C(C)(C)C)cc1 [Compound 30, N-(4-(tert-butyl)phenyl)-4-(2-methyl-6,7-dihydropyrazolo[1,5-a]pyrimidin-4(5H)-yl)-4-oxobutanamide] | > 10000
Cc1cc2n(n1)CCCN2C(=O)CCC(=O)Nc1ccc(N2CCCC2)cc1 [Compound 31, 4-(2-methyl-6,7-dihydropyrazolo[1,5-a]pyrimidin-4(5H)-yl)-4-oxo-N-(4-(pyrrolidin-1-yl)phenyl)butanamide] | < 5000
Cc1cc2n(n1)CCCN2C(=O)CCC(=O)Nc1ccc(-c2ccccc2)cc1 [Compound 33, N-([1,1′-biphenyl]-4-yl)-4-(2-methyl-6,7-dihydropyrazolo[1,5-a]pyrimidin-4(5H)-yl)-4-oxobutanamide] | < 100
Cc1cc2n(n1)CCCN2C(=O)CCC(=O)Nc1ccc(-c2ccccn2)cc1 [Compound 34, 4-(2-methyl-6,7-dihydropyrazolo[1,5-a]pyrimidin-4(5H)-yl)-4-oxo-N-(4-(pyridin-2-yl)phenyl)butanamide] | < 100
Cc1cc2n(n1)CCCN2C(=O)CCC(=O)Nc1ccc(-c2cccnc2)cc1 [Compound 35, 4-(2-methyl-6,7-dihydropyrazolo[1,5-a]pyrimidin-4(5H)-yl)-4-oxo-N-(4-(pyridin-3-yl)phenyl)butanamide] | < 100
Cc1cc2n(n1)CCCN2C(=O)CCC(=O)Nc1ccc(-c2ccncc2)cc1 [Compound 36, 4-(2-methyl-6,7-dihydropyrazolo[1,5-a]pyrimidin-4(5H)-yl)-4-oxo-N-(4-(pyridin-4-yl)phenyl)butanamide] | < 1000
Cc1cc2n(n1)CCCN2C(=O)CCC(=O)Nc1ccc(-c2cccnn2)cc1 [Compound 37, 4-{2-methyl-5H,6H,7H-pyrazolo[1,5-a]pyrimidin-4-yl}-4-oxo-N-[4-(pyridazin-3-yl)phenyl]butanamide] | < 1000
Cc1cc2n(n1)CCCN2C(=O)CCC(=O)Nc1ccc(-c2ccncn2)cc1 [Compound 38, 4-(2-methyl-6,7-dihydropyrazolo[1,5-a]pyrimidin-4(5H)-yl)-4-oxo-N-(4-(pyrimidin-4-yl)phenyl)butanamide] | > 10000
Cc1cc2n(n1)CCCN2C(=O)CCC(=O)Nc1ccc(-c2cncnc2)cc1 [Compound 39, 4-{2-methyl-5H,6H,7H-pyrazolo[1,5-a]pyrimidin-4-yl}-4-oxo-N-[4-(pyrimidin-5-yl)phenyl]butanamide] | < 100
Cc1cc2n(n1)CCCN2C(=O)CCC(=O)Nc1ccc(-c2ncccn2)cc1 [Compound 40, 4-{2-methyl-5H,6H,7H-pyrazolo[1,5-a]pyrimidin-4-yl}-4-oxo-N-[4-(pyrimidin-2-yl)phenyl]butanamide] | < 1000
Cc1cc2n(n1)CCCN2C(=O)CCC(=O)Nc1ccc(-c2ccccn2)cn1 [Compound 41, N-([2,3′-bipyridin]-6′-yl)-4-(2-methyl-6,7-dihydropyrazolo[1,5-a]pyrimidin-4(5H)-yl)-4-oxobutanamide] | < 100
Cc1cc2n(n1)CCCN2C(=O)CCC(=O)Nc1ccc(-c2ccccc2)nc1 [Compound 43, 4-(2-methyl-6,7-dihydropyrazolo[1,5-a]pyrimidin-4(5H)-yl)-4-oxo-N-(6-phenylpyridin-3-yl)butanamide] | < 100
Cc1cc2n(n1)CCCN2C(=O)CCC(=O)Nc1ccc(-c2ccccc2)cn1 [Compound 44, 4-(2-methyl-6,7-dihydropyrazolo[1,5-a]pyrimidin-4(5H)-yl)-4-oxo-N-(5-phenylpyridin-2-yl)butanamide] | < 100

SMILES | IC50 [nM]
Cc1cc2n(n1)CCCN2C(=O)CCC(=O)Nc1ccc(-c2ccccc2)nn1 [Compound 45, 4-(2-methyl-6,7-dihydropyrazolo[1,5-a]pyrimidin-4(5H)-yl)-4-oxo-N-(6-phenylpyridazin-3-yl)butanamide] | < 100
Cc1cc2n(n1)CCCN2C(=O)CCC(=O)Nc1ncc(-c2ccccc2)cn1 [Compound 46, 4-{2-methyl-5H,6H,7H-pyrazolo[1,5-a]pyrimidin-4-yl}-4-oxo-N-(5-phenylpyrimidin-2-yl)butanamide] | < 1000
Cc1cc2n(n1)CCCN2C(=O)CCC(=O)Nc1cnc(-c2ccccc2)cn1 [Compound 47, 4-(2-methyl-6,7-dihydropyrazolo[1,5-a]pyrimidin-4(5H)-yl)-4-oxo-N-(5-phenylpyrazin-2-yl)butanamide] | < 100
Cc1cc2n(n1)CCCN2C(=O)CCC(=O)Nc1ccc(-c2cccnc2)nc1 [Compound 48, N-([2,3′-bipyridin]-5-yl)-4-(2-methyl-6,7-dihydropyrazolo[1,5-a]pyrimidin-4(5H)-yl)-4-oxobutanamide] | < 100
Cc1cc2n(n1)CCCN2C(=O)CCC(=O)Nc1ccc(-c2cccnc2)cn1 [Compound 49, 4-{2-methyl-5H,6H,7H-pyrazolo[1,5-a]pyrimidin-4-yl}-4-oxo-N-[5-(pyridin-3-yl)pyridin-2-yl]butanamide] | < 100
Cc1cc2n(n1)CCCN2C(=O)CCC(=O)Nc1ccc(-c2cnccn2)cn1 [Compound 50, 4-(2-methyl-6,7-dihydropyrazolo[1,5-a]pyrimidin-4(5H)-yl)-4-oxo-N-(5-(pyrazin-2-yl)pyridin-2-yl)butanamide] | < 100
Cc1cc2n(n1)CCCN2C(=O)CCC(=O)Nc1cnc(-c2cccnc2)cn1 [Compound 52, 4-(2-methyl-6,7-dihydropyrazolo[1,5-a]pyrimidin-4(5H)-yl)-4-oxo-N-(5-(pyridin-3-yl)pyrazin-2-yl)butanamide] | < 100
Cc1cc2n(n1)CCCN2C(=O)CCC(=O)Nc1ccc(-c2ccccc2)cc1C [Compound 53, 4-(2-methyl-6,7-dihydropyrazolo[1,5-a]pyrimidin-4(5H)-yl)-N-(3-methyl-[1,1′-biphenyl]-4-yl)-4-oxobutanamide] | > 10000
Cc1cc2n(n1)CCCN2C(=O)CCC(=O)Nc1ccc(-c2ccccc2)c(C)c1 [Compound 54, 4-(2-methyl-6,7-dihydropyrazolo[1,5-a]pyrimidin-4(5H)-yl)-N-(2-methyl-[1,1′-biphenyl]-4-yl)-4-oxobutanamide] | < 100
COc1cc(-c2ccccc2)ccc1NC(=O)CCC(=O)N1CCCn2nc(C)cc21 [Compound 55, N-(3-methoxy-[1,1′-biphenyl]-4-yl)-4-(2-methyl-6,7-dihydropyrazolo[1,5-a]pyrimidin-4(5H)-yl)-4-oxobutanamide] | > 10000
COc1cc(NC(=O)CCC(=O)N2CCCn3nc(C)cc32)ccc1-c1ccccc1 [Compound 56, N-(2-methoxy-[1,1′-biphenyl]-4-yl)-4-(2-methyl-6,7-dihydropyrazolo[1,5-a]pyrimidin-4(5H)-yl)-4-oxobutanamide] | < 5000
Cc1cc2n(n1)CCCN2C(=O)CCC(=O)Nc1ccc(-c2ccccc2)c(F)c1 [Compound 57, N-(2-fluorobiphenyl-4-yl)-4-(2-methyl-6,7-dihydropyrazolo[1,5-a]pyrimidin-4(5H)-yl)-4-oxobutanamide] | < 100
Cc1cc2n(n1)CCCN2C(=O)CCC(=O)Nc1ccc(-c2ccccc2C)cc1 [Compound 58, 4-(2-methyl-6,7-dihydropyrazolo[1,5-a]pyrimidin-4(5H)-yl)-N-(2′-methyl-[1,1′-biphenyl]-4-yl)-4-oxobutanamide] | < 100
Cc1cccc(-c2ccc(NC(=O)CCC(=O)N3CCCn4nc(C)cc43)cc2)c1 [Compound 59, 4-(2-methyl-6,7-dihydropyrazolo[1,5-a]pyrimidin-4(5H)-yl)-N-(3′-methyl-[1,1′-biphenyl]-4-yl)-4-oxobutanamide] | < 100
Cc1ccc(-c2ccc(NC(=O)CCC(=O)N3CCCn4nc(C)cc43)cc2)cc1 [Compound 60, 4-(2-methyl-6,7-dihydropyrazolo[1,5-a]pyrimidin-4(5H)-yl)-N-(4′-methyl-[1,1′-biphenyl]-4-yl)-4-oxobutanamide] | < 100
COc1ccccc1-c1ccc(NC(=O)CCC(=O)N2CCCn3nc(C)cc32)cc1 [Compound 61, N-(2′-methoxy-[1,1′-biphenyl]-4-yl)-4-(2-methyl-6,7-dihydropyrazolo[1,5-a]pyrimidin-4(5H)-yl)-4-oxobutanamide] | > 10000
COc1cccc(-c2ccc(NC(=O)CCC(=O)N3CCCn4nc(C)cc43)cc2)c1 [Compound 62, N-(3′-methoxy-[1,1′-biphenyl]-4-yl)-4-(2-methyl-6,7-dihydropyrazolo[1,5-a]pyrimidin-4(5H)-yl)-4-oxobutanamide] | < 100
